Experimental data from article PMC6161602, “Synthesis and characterisation of (Z)-styrylbenzene derivatives as potential selective anticancer agents” (Journal of Enzyme Inhibition and Medicinal Chemistry, 2018).
Like-named read-outs stand apart in the source and are kept apart here.

How the values were obtained:
AGS cells = assay: MTT cell growth inhibition assay, AGS; format: cell-based, human; conditions: for IC50: MTT, 48 h incubation, AGS; for SI IC50 (L-02/AGS): selectivity index, IC50 (L-02)/IC50 (AGS)
Description: (§1) All human cell lines were used in this study. MGC-803 late-stage differentiation gastric cancer cell, A549 lung cancer cell, HepG2 hepatoma cell, AGS gastric cancer cell, BEL-7402 liver cancer cell, HCT-116 colorectal cancer cell, HeLa cervical cancer cell, SGC-7901 early differentiation gastric cancer cell, L-02 normal liver cell, MCF-7 breast cancer cell, and MCF-10A normal breast cell were initially purchased from American Type Culture Collection (ATCC, Manassas, VA, USA). RPMI-1640 media, Dulbecco’s modified Eagle’s medium (DMEM), and foetal bovine serum (FBS) were provided from Gibco Company (Grand Island, NY, USA). The cells were maintained in DMEM or RPMI-1640, supplemented with 10% FBS, 100 IU/mL penicillin and […] (Grand Island, NY, USA), and at 37 °C in a humidified atmosphere containing 5% CO2.
(§2) Cells were plated in 96-well plates at a density of 30–40% to ensure exponential growth throughout the experimental period, and then allowed to adhere for 1 day[21]. Next, the cells were treated with four serial concentrations (1, 10, 50, and 100 µM) of each compound. Taxol, CA-4, and CA-4P (phosphorylated form of CA-4) were used as positive controls. After 48 h incubation, MTT solution was added to each well at a final concentration of 2 mg/mL, and incubated for an additional 4 h. Next, the MTT solution was removed and 150 µL of dimethyl sulphoxide (DMSO)/well was added (Sigma-Aldrich, St Louis, MO, USA). The plates were shaken vigorously at RT to ensure complete solubilisation, and absorption at 492 nm was determined.
(§3) According to standard protocol, preliminary in vitro anti-proliferative activities of the synthesised compounds were evaluated by MTT assay, using nine human cancer cell lines (MGC-803, A549, HepG2, AGS, BEL-7402, HCT116, HeLa, SGC-7901, and MCF-7) and two normal human cell lines (L-02 and MCF-10A), and compared with those of CA-4, CA-4P, and taxol.

HepG2 hepatoma cell = assay: MTT cell growth inhibition assay, HepG-2; format: cell-based, human; conditions: MTT, 48 h incubation, HepG-2
Description: as §1, §2, §3

BEL-7402 cells = assay: MTT cell growth inhibition assay, BEL-7402; format: cell-based, human; conditions: for IC50: MTT, 48 h incubation, Bel-7402; for SI IC50 (L-02/BEL-7402): selectivity index, IC50 (L-02)/IC50 (BEL-7402)
Description: as §1, §2, §3

L-02 normal liver cell = assay: MTT cell growth inhibition assay, L-02 (normal); format: cell-based, human; conditions: 48 h incubation, L-02 normal cells
Description: as §1, §2, §3

MGC-803 cells = assay: MTT cell growth inhibition assay, MGC-803; format: cell-based, human; conditions: for IC50: MTT, 48 h incubation, MGC-803; for SI IC50 (L-02/MGC-803): selectivity index, IC50 (L-02)/IC50 (MGC-803)
Description: as §1, §2, §3

MCF-7 breast cancer cell = assay: MTT cell growth inhibition assay, MCF-7; format: cell-based, human; conditions: for IC50: MTT, 48 h incubation, MCF-7
Description: as §1, §2, §3

[1] = tested on: HeLa cervical cancer cell; assay: MTT cell growth inhibition assay, HeLa; format: cell-based, human; conditions: 48 h incubation
Description: as §1, §2, §3

A549 lung cancer cell = assay: MTT cell growth inhibition assay, A549; format: cell-based, human; conditions: for IC50: MTT, 48 h incubation, A549
Description: as §1, §2, §3

HCT116 cells = assay: MTT cell growth inhibition assay, HCT116; format: cell-based, human; conditions: for IC50: MTT, 48 h incubation, HCT116
Description: as §1, §2, §3

[2] = tested on: SGC-7901 early differentiation gastric cancer cell; assay: MTT cell growth inhibition assay, SGC-7901; format: cell-based, human; conditions: 48 h incubation
Description: as §1, §2, §3

[3] = tested on: MCF-10A normal breast cell; assay: MTT cell growth inhibition assay, MCF-10A (normal); format: cell-based, human; conditions: 48 h incubation, MCF-10A normal cells
Description: as §1, §2, §3

[4] = selectivity index, IC50 (MCF-10A)/IC50 (MCF-7)
[5] = selectivity index, IC50 (L-02)/IC50 (HCT116)

IC50 (AGS cells; Homo sapiens) [µM]	IC50 (HepG2 hepatoma cell; Homo sapiens, HepG2) [µM]	IC50 (BEL-7402 cells; Homo sapiens) [µM]	IC50 (MGC-803 cells; Homo sapiens, MGC-803, 48 h) [µM]	IC50 (MCF-7 breast cancer cell; Homo sapiens, MCF7) [µM]	IC50 ([1]; Homo sapiens) [µM]	IC50 (A549 lung cancer cell; Homo sapiens) [µM]	IC50 (HCT116 cells; Homo sapiens, HCT-116) [µM]	IC50 ([2]; Homo sapiens) [µM]	melting point [°C]	Compound	IC50 (L-02 normal liver cell; Homo sapiens) [µM]	IC50 ([3]; Homo sapiens) [µM]	SI IC50 (L-02/HCT116) (HCT116 cells; [5])	SI IC50 (L-02/BEL-7402) (BEL-7402 cells)	further results
8.01 ± 1.65	> 100	1.82 ± 1.2	0.67 ± 0.22	15 ± 2	> 100	> 100	16.6 ± 10.3	> 100	102 to 104	COc1cc(/C(C#N)=C/c2cccs2)cc(OC)c1OC [Compound 7a, (Z)-3-(Thiophen-2-yl)-2-(3,4,5-trimethoxyphenyl)acrylonitrile]	21.2 ± 10.8	55.8 ± 10.4	>1.2	>11.6	SI IC50 (L-02/AGS) (AGS cells): >2.6; SI IC50 (MCF-10A/MCF-7) (MCF-7 breast cancer cell; [4]): >3.7
27.9 ± 5.84	> 100	> 100	> 100	> 100	> 100	> 100	> 100	> 100	68 to 70	Cc1ccc(/C=C(\C#N)c2ccc(C)cc2)cc1 [Compound 13a, (Z)-2,3-Di-p-tolylacrylonitrile]	> 100	> 100	–	–	–
26.5 ± 3.89	> 100	> 100	> 100	35 ± 14.8	> 100	> 100	> 100	> 100	112 to 114	CCc1ccc(/C=C(\C#N)c2ccc(C)cc2)cc1 [Compound 13b, (Z)-3-(4-Ethylphenyl)-2-(p-tolyl)acrylonitrile]	> 100	85.7 ± 3.12	–	–	–
66.2 ± 3.65	> 100	77.3 ± 0.26	> 100	33.9 ± 7.3	> 100	> 100	79.2 ± 5.21	> 100	135 to 137	COc1cc(/C=C(\C#N)c2ccc(C)cc2)cc(OC)c1OC [Compound 13c, (Z)-2-(p-Tolyl)-3-(3,4,5-trimethoxyphenyl)acrylonitrile]	> 100	> 100	–	–	–
> 100	> 100	> 100	89.2 ± 3.2	> 100	> 100	> 100	> 100	> 100	145 to 147	Cc1ccc(/C(C#N)=C/c2ccccc2)cc1 [Compound 13d, (Z)-3-Phenyl-2-(p-tolyl)acrylonitrile]	> 100	> 100	–	–	–
> 100	> 100	> 100	> 100	> 100	> 100	> 100	> 100	> 100	128 to 130	Cc1ccc(/C(C#N)=C/c2cccs2)cc1 [Compound 14a, (Z)-3-(Thiophen-2-yl)-2-(p-tolyl)acrylonitrile]	> 100	> 100	–	–	–
> 100	> 100	> 100	> 100	> 100	> 100	> 100	> 100	> 100	102 to 104	Cc1ccc(/C(C#N)=C/c2ccccn2)cc1 [Compound 14b, (Z)-3-(Pyridin-2-yl)-2-(p-tolyl)acrylonitrile]	> 100	> 100	–	–	–

The next lines start with the compound.

Compound	IC50 (AGS cells; Homo sapiens) [µM]	IC50 (HepG2 hepatoma cell; Homo sapiens, HepG2) [µM]	IC50 (BEL-7402 cells; Homo sapiens) [µM]	IC50 (MGC-803 cells; Homo sapiens, MGC-803, 48 h) [µM]	IC50 (MCF-7 breast cancer cell; Homo sapiens, MCF7) [µM]	IC50 ([1]; Homo sapiens) [µM]	IC50 (A549 lung cancer cell; Homo sapiens) [µM]	IC50 (HCT116 cells; Homo sapiens, HCT-116) [µM]	IC50 ([2]; Homo sapiens) [µM]	melting point [°C]	IC50 (L-02 normal liver cell; Homo sapiens) [µM]	IC50 ([3]; Homo sapiens) [µM]	SI IC50 (L-02/HCT116) (HCT116 cells; [5])	SI IC50 (L-02/BEL-7402) (BEL-7402 cells)	further results
COc1ccc(/C=C\c2cc(OC)c(OC)c(OC)c2)cc1O [CA-4, (Z)-2-methoxy-5–(3,4,5-trimethoxystyryl) phenol, reference compound]	3.42 ± 0.03	> 100	2.02 ± 0.03	0.06 ± 0.02	0.22 ± 0.09	> 100	> 100	0.16	0.3	–	1.1 ± 0.03	3.23 ± 1.21	–	–	SI IC50 (MCF-10A/MCF-7) (MCF-7 breast cancer cell): >14.6; SI IC50 (L-02/HCT116) (HCT116 cells): >6.8
COc1ccc(/C=C\c2cc(OC)c(OC)c(OC)c2)cc1OP(=O)(O)O [CA-4P, reference compound]	–	–	–	–	–	–	–	–	–	–	–	–	>4.5	–	IC50 (AGS cells): 4.73 ± 0.22 µM; IC50 (HepG2 hepatoma cell): > 100 µM; IC50 (BEL-7402 cells): 5.45 ± 2.04 µM; IC50 (L-02 normal liver cell): 2.67 ± 0.61 µM; IC50 (MGC-803 cells): 0.03 ± 0.02 µM; SI IC50 (L-02/MGC-803) (MGC-803 cells): >89.0; IC50 (MCF-7 breast cancer cell): 0.48 ± 0.25 µM; SI IC50 (MCF-10A/MCF-7) (MCF-7 breast cancer cell; [4]): >30.3; IC50 [1]: > 100 µM; IC50 (A549 lung cancer cell): > 100 µM; IC50 (HCT116 cells): 0.59 ± 0.22 µM; IC50 [2]: 0.12 ± 0.03 µM; IC50 [3]: 14.6 ± 1.36 µM
COc1ccc(/C=C(\C#N)c2cc(OC)c(OC)c(OC)c2)cc1 [Compound 6d, (Z)-3-(4-Methoxyphenyl)-2-(3,4,5-trimethoxyphenyl)acrylonitrile]	0.05 ± 0.003	> 100	0.75 ± 0.21	6.18 ± 0.36	16.7 ± 4.77	> 100	> 100	1.51 ± 0.05	> 100	156 to 158	4.15 ± 4.16	3.07 ± 0.18	>2.7	>5.5	–
COc1cc(/C(C#N)=C/c2ccc(C(C)C)cc2)cc(OC)c1OC [Compound 6f, (Z)-3-(4-Isopropylphenyl)-2-(3,4,5-trimethoxyphenyl)acrylonitrile]	1.33 ± 0.15	> 100	0.72 ± 0.01	7.21 ± 3.65	4.37 ± 2.8	> 100	36.62 ± 0.134	0.17 ± 0.1	> 100	156 to 158	> 100	5.79 ± 0.48	>588.2	>138.8	SI IC50 (L-02/AGS) (AGS cells): >75.1; SI IC50 (L-02/MGC-803) (MGC-803 cells): >13.8; SI IC50 (MCF-10A/MCF-7) (MCF-7 breast cancer cell; [4]): >1.3; SI IC50 (L-02/A549) (A549 lung cancer cell; selectivity index, IC50 (L-02)/IC50 (A549)): >2.7
CCc1ccc(/C=C(\C#N)c2cc(OC)c(OC)c(OC)c2)cc1 [Compound 6g, (Z)-3-(4-Ethylphenyl)-2-(3,4,5-trimethoxyphenyl)acrylonitrile]	4.38 ± 2.04	> 100	0.65 ± 0.05	0.01 to 7.21	> 100	> 100	> 100	0.34 ± 0.01	> 100	76 to 78	> 100	1.19 ± 0.08	>294.1	>153.8	SI IC50 (L-02/AGS) (AGS cells): >22.8; IC50 (MGC-803 cells): < 0.01 µM
(Z)-3-(Naphthalen-1-yl)-2-(3,4,5-trimethoxyphenyl)acrylonitrile [Compound 7c]	–	–	–	–	–	–	–	–	–	–	–	–	–	–	IC50 (AGS cells): 3.51 ± 0.25 µM; IC50 (HepG2 hepatoma cell): > 100 µM; IC50 (BEL-7402 cells): 2.53 ± 0.12 µM; IC50 (L-02 normal liver cell): 8.21 ± 0.051 µM; IC50 (MGC-803 cells): 3.45 ± 2.11 µM; IC50 (MCF-7 breast cancer cell): 2.83 ± 0.35 µM; IC50 [1]: > 100 µM; IC50 (A549 lung cancer cell): > 100 µM; IC50 (HCT116 cells): 4.58 ± 0.42 µM; IC50 [2]: > 100 µM; IC50 [3]: 1.03 ± 0.44 µM
